Values quoted from earlier work, collected in patent publication US7771744B2, “Bazedoxifene acetate formulations” (Wyeth LLC, priority 2005, dated 2010).

Assays:
[1] = tested on: bone loss and cholesterol; conditions: ovariectomized rat model of osteopenia
[2] = tested on: MCF-7 cell line (human breast cancer cell line)
uterine response = conditions: preclinical models of uterine stimulation

solubility in aqueous and organic solvent systems compared with form B	Compound	effect on bone loss and cholesterol [1]	estrogen antagonist behaviour [2]	stimulation of uterine response (uterine response)
higher solubility	Cc1c(-c2ccc(O)cc2)n(Cc2ccc(OCCN3CCCCCC3)cc2)c2ccc(O)cc12 [Form A, 1-[4-(2-azepan-1-yl-ethoxy)-benzyl]-2-(4-hydroxy-phenyl)-3-methyl-1H-indol-5-ol acetic acid]			
	Cc1c(-c2ccc(O)cc2)n(Cc2ccc(OCCN3CCCCCC3)cc2)c2ccc(O)cc12 [bazedoxifene acetate, 1-[4-(2-azepan-1-yl-ethoxy)-benzyl]-2-(4-hydroxy-phenyl)-3-methyl-1H-indol-5-ol acetic acid]	estrogen agonist-like effect in preventing bone loss and reducing cholesterol	behaves as an estrogen antagonist	little or no stimulation of uterine response
